The values below come from the Biogen ADME set (Fang et al. 2023).

Molecules are shown by their SMILES. ≈ marks a conversion by molar mass, not a printed value. Some results are limits rather than exact numbers.

A word on the aqueous solubility: it is the concentration that dissolves in the medium under given conditions. A low value points to little dissolved substance.

The conditions of this data set: for aqueous solubility: pH 6.8.

Regarding `CN(C)Cc1cccc(N/C(=C2\C(=O)Nc3cc(C(=O)N(C)C)ccc32)c2ccccc2)c1`, the MDR1-MDCK efflux ratio was found to be 45.4; the intrinsic clearance, human liver microsomes came out at 76.2 mL/min/kg; the intrinsic clearance, rat liver microsomes worked out at 152 mL/min/kg; the aqueous solubility came out at 65.7 µg/mL (≈ 149 µM).
Compound `Nc1nc(N2CCN(CC3CCCC3)C(=O)C2)cc(-n2cccn2)n1` showed an intrinsic clearance, human liver microsomes of 47.2 mL/min/kg and an intrinsic clearance, rat liver microsomes of 1150 mL/min/kg.
In the case of `Cc1cc(C)c2c(N)c(C(=O)NCc3ccc(Cl)cc3)sc2n1`, the fraction unbound, human plasma came to 0.00426; the fraction unbound, rat plasma was found to be 0.00652; the intrinsic clearance, human liver microsomes is 162 mL/min/kg; the intrinsic clearance, rat liver microsomes worked out at 1540 mL/min/kg.
In the case of `CCOc1cccc(-c2cccc(N)n2)c1`, the MDR1-MDCK efflux ratio was 0.559; the intrinsic clearance, human liver microsomes came to 237 mL/min/kg; the intrinsic clearance, rat liver microsomes was found to be 556 mL/min/kg.
In the case of `CC1=NN(c2ccc(F)cc2)C(=O)/C1=C(/C)Nc1ccc(S(N)(=O)=O)cc1`, the MDR1-MDCK efflux ratio came to 12; the intrinsic clearance, human liver microsomes is not above 4.74 mL/min/kg; the intrinsic clearance, rat liver microsomes was not above 10.7 mL/min/kg; the aqueous solubility turned out to be 28.4 µg/mL (≈ 73 µM).
For `O=C(c1ccncc1)N1CCC(c2cnccn2)CC1`, the MDR1-MDCK efflux ratio was 2.71; the intrinsic clearance, human liver microsomes was not above 4.74 mL/min/kg; the intrinsic clearance, rat liver microsomes is not above 10.7 mL/min/kg; the aqueous solubility is 61.2 µg/mL (≈ 228 µM).
On to `CC(C)c1nsc(N2CCC(Nc3cccnc3)CC2)n1`, for which the MDR1-MDCK efflux ratio was determined as 0.816; the intrinsic clearance, human liver microsomes was 26.3 mL/min/kg; the intrinsic clearance, rat liver microsomes was 403 mL/min/kg.
For `CCNC(=O)C1CN(c2cccc(C#N)n2)C1`, the MDR1-MDCK efflux ratio is 2.07; the intrinsic clearance, human liver microsomes was not above 4.74 mL/min/kg; the intrinsic clearance, rat liver microsomes is not above 10.7 mL/min/kg; the aqueous solubility came out at 42.9 µg/mL (≈ 186 µM).
The matching figures for `Clc1cc2ncc(-n3ccnc3)nc2cc1Cl`: 0.485, 16.8 mL/min/kg, 134 mL/min/kg and 2.96 µg/mL (≈ 11.2 µM).
In the case of `NCC(=O)Nc1ccc(-n2nc(C(F)(F)F)cc2-c2ccc3c(ccc4ccccc43)c2)cc1`, the MDR1-MDCK efflux ratio was 2.96 and the aqueous solubility came out at 0.25 µg/mL (≈ 0.543 µM).
With `COc1ccc(C)cc1NC(=O)CN1CCc2ccccc2C1`, the MDR1-MDCK efflux ratio worked out at 0.497; the intrinsic clearance, human liver microsomes came out at 191 mL/min/kg; the intrinsic clearance, rat liver microsomes was determined as 2320 mL/min/kg; the aqueous solubility was 15.5 µg/mL (≈ 50 µM).
Take `CO[C@H]1CC[C@H](C(=O)NC[C@H]2CC[C@H](c3nnc(-c4nccc5ccccc45)o3)CC2)CC1`: the MDR1-MDCK efflux ratio was 8.64; the intrinsic clearance, human liver microsomes was found to be 103 mL/min/kg; the intrinsic clearance, rat liver microsomes was 378 mL/min/kg; the aqueous solubility was 21.2 µg/mL (≈ 47.3 µM).
Turning to `Cc1ccc(CNc2cncc(-n3nc(C)cc3C)n2)cn1`, the intrinsic clearance, human liver microsomes is 23.4 mL/min/kg and the intrinsic clearance, rat liver microsomes amounted to 252 mL/min/kg.
Consider `Cc1nc(-c2ccccc2)c(C(=O)Nc2ccc(Cl)cc2)s1`, for which the MDR1-MDCK efflux ratio was found to be 0.438 and the aqueous solubility came out at 0.35 µg/mL (≈ 1.06 µM).
`COc1cccc(Oc2ccc(NC(=O)CN3CCOCC3)cn2)c1`: the MDR1-MDCK efflux ratio is 1.26; the intrinsic clearance, human liver microsomes is not above 4.74 mL/min/kg; the intrinsic clearance, rat liver microsomes is 138 mL/min/kg.
Take `Cc1ccc2c(c1)cc(CNCCc1ccccc1)c1nnnn12`: the MDR1-MDCK efflux ratio worked out at 0.45; the intrinsic clearance, human liver microsomes turned out to be 417 mL/min/kg; the intrinsic clearance, rat liver microsomes came to 1770 mL/min/kg; the aqueous solubility was 24.9 µg/mL (≈ 78.5 µM).
With `CC(C)(C)C(=O)N1CCC(CN(CC(N)=O)C2CCCC2)CC1`, the MDR1-MDCK efflux ratio came to 26.6; the intrinsic clearance, human liver microsomes stood at 29.8 mL/min/kg; the intrinsic clearance, rat liver microsomes was 1410 mL/min/kg.
In the case of `Cc1ccc(C)c(OCCC(=O)N2CCC(n3c(=O)[nH]c4ccccc43)CC2)c1`, the intrinsic clearance, human liver microsomes is 421 mL/min/kg and the intrinsic clearance, rat liver microsomes turned out to be 6460 mL/min/kg.
